The values below come from patent publication US20080188493A1 (priority 2005, published 2008).

What is called melting point is the temperature, or range, at which the solid turns liquid.

In one data set the test system is Pyrenophora teres. Put plainly: Activity against net blotch of barley caused by Pyrenophora teres, 1 day protective application (comparative test). Format: in vivo. The note with it: potted barley seedlings, sprayed 24 h before inoculation; visual % infection of entire leaf area after 6 days; concentration not given; untreated 90%. As for the experimental part:
The active compounds were prepared as a stock solution comprising 25 mg of active compound which was made up to 10 ml using a mixture of acetone and/or DMSO and the emulsifier Uniperol® EL (wetting agent having emulsifying and dispersing action based on ethoxylated alkylphenols) in a volume ratio of solvent/emulsifier of 99/1. The mixture was then made up to 100 ml with water. This stock solution was diluted with the solvent/emulsifier/water mixture described to the concentration of active compound stated below.
Comparative test—Activity against net blotch of barley caused by Pyrenophora teres, 1 day protective application
Leaves of potted barley seedlings were sprayed to runoff point with an aqueous suspension having the concentration of active compound stated below. 24 hours after the spray coating had dried on, the test plants were inoculated with an aqueous spore suspension of Pyrenophora [syn. Drechslera] teres, the net blotch pathogen. The test plants were then placed in a greenhouse at temperatures between 20 and 24° C. and 95 to 100% relative atmospheric humidity. After 6 days, the extent of the development of the disease was determined visually in % infection of the entire leaf area.

With `C=CCCCCc1c(C)nc2cc(C)nn2c1N` [I-1], the melting point lay in the range of 178 to 179 °C. In the data set on Pyrenophora teres, the Infection in % is reported as 40%.

Turning to `CCCCCCc1c(C)nc2cc(C)nn2c1N` [compound 30, reference compound], the Infection in % in the data set on Pyrenophora teres is given as 90%.
